Test system: LXRα and/or LXRβ
Assay: Co-transfection assay (LXRE luciferase reporter, CV-1 cells)
Format: cell-based, human
Conditions: tested as described in Example 33; IC50 or EC50 for LXRα and/or LXRβ, isoform not specified; read-out: activity (IC50 or EC50 for LXR)
How it was run: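 CV-1 cells transiently co-transfected with full-length human LXRα or LXRβ plus RXRα, an LXRE×1-Tk-luciferase reporter and a β-galactosidase control. Compounds incubated 20 h at 37 °C (≤1% DMSO; screen at 10 μM final); luciferase read after lysis. EC50/IC50 from 8-point half-log curves (4 wells per point, ≥3 experiments); efficacy relative to a reference agonist high control and DMSO.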

SMILES	IC50 or EC50 (potency, activation or inhibition) [nM]
CCS(=O)(=O)c1cccc(-c2ccc(-n3cc(C(C)(C)O)nc3-c3c(F)cccc3F)c(C)c2)c1 [Example 194, 2-(2-(2,6-difluorophenyl)-1-(3′-(ethylsulfonyl)-3-methylbiphenyl-4-yl)-1H-imidazol-4-yl)propan-2-ol]	< 1000
Cc1cc(-c2cccc(S(C)(=O)=O)c2)ccc1-n1cc(C(C)(C)O)nc1-c1ccccc1C(C)C [Example 195, 2-(2-(2-isopropylphenyl)-1-(3-methyl-3′-(methylsulfonyl)biphenyl-4-yl)-1H-imidazol-4-yl)propan-2-ol]	< 1000
CCS(=O)(=O)c1cccc(-c2ccc(-n3cc(C(C)(C)O)nc3-c3ccccc3C(C)C)c(C)c2)c1 [Example 196, 2-(1-(3′-(ethylsulfonyl)-3-methyl-biphenyl-4-yl)-2-(2-isopropyl-phenyl)-1H-imidazol-4-yl)propan-2-ol]	< 1000
Cc1cc(-c2cccc(S(C)(=O)=O)c2)ccc1-c1nc(C(C)(C)O)cn1-c1c(Cl)cccc1Cl [Example 197, 2-(1-(2,6-dichlorophenyl)-2-(3-methyl-3′-(methylsulfonyl)biphenyl-4-yl)-1H-imidazol-4-yl)propan-2-ol]	< 1000
CC(C)(O)c1cn(-c2ccc(-c3cccc(S(C)(=O)=O)c3)cc2)c(-c2ccccc2C(F)(F)F)n1 [Example 198, 2-{1-[3′-(methylsulfonyl)biphenyl-4-yl]-2-[2-(trifluoromethyl)phenyl]-1H-imidazol-4-yl}propan-2-ol]	< 1000
CC(C)(O)c1cn(-c2ccc(-c3ccc(S(C)(=O)=O)cc3)cc2)c(-c2ccccc2C(F)(F)F)n1 [Example 199, 2-{1-[4′-(methylsulfonyl)biphenyl-4-yl]-2-[2-(trifluoromethyl)phenyl]-1H-imidazol-4-yl}propan-2-ol]	1000 to 10000
CCS(=O)(=O)c1cccc(-c2ccc(-n3cc(C(C)(C)O)nc3-c3ccccc3C(F)(F)F)cc2)c1 [Example 200, 2-{1-[3′-(ethylsulfonyl)biphenyl-4-yl]-2-[2-(trifluoromethyl)phenyl]-1H-imidazol-4-yl}propan-2-ol]	< 1000
CC(C)(O)c1cn(-c2cccc(-c3cccc(S(C)(=O)=O)c3)c2)c(-c2ccccc2C(F)(F)F)n1 [Example 201, 2-{1-[3′-(methylsulfonyl)biphenyl-3-yl]-2-[2-(trifluoromethyl)phenyl]-1H-imidazol-4-yl}propan-2-ol]	< 1000
CC(C)(O)c1cn(-c2ccc(-c3cc(C(F)(F)F)ccc3F)cc2)c(-c2ccccc2C(F)(F)F)n1 [Example 220, 2-{1-[2′-fluoro-5′-(trifluoro-methyl)biphenyl-4-yl]-2-[2-(trifluoro-methyl)phenyl]-1H-imidazol-4-yl}propan-2-ol]	< 1000
COc1ncccc1-c1ccc(-n2cc(C(C)(C)O)nc2-c2ccccc2C(F)(F)F)cc1 [Example 274, 2-(1-{4-[2-(methyloxy)pyridin-3-yl]phenyl}-2-[2-(trifluoro-methyl)phenyl]-1H-imidazol-4-yl)propan-2-ol]	1000 to 10000
CNS(=O)(=O)c1cccc(-c2ccc(-n3cc(C(C)(C)O)nc3-c3ccccc3C(F)(F)F)cc2)c1 [Example 344, 4′-{4-(1-hydroxy-1-methylethyl)-2-[2-(trifluoromethyl)phenyl]-1H-imidazol-1-yl}-N-methylbiphenyl-3-sulfonamide]	< 1000
CS(=O)(=O)c1cccc(-c2ccc(-c3[nH]c(C(F)(F)F)nc3-c3ccccc3Cl)s2)c1 [Example 357, 4-(2-chlorophenyl)-5-{5-[3-(methylsulfonyl)phenyl]-2-thienyl}-2-(trifluoromethyl)-1H-imidazole]	< 1000
CS(=O)(=O)c1cccc(-c2ccc(-n3cc(C(F)(F)F)nc3-c3ccccc3Cl)cc2)c1 [Example 358, 2-(2-chlorophenyl)-1-[3′-(methyl-sulfonyl)biphenyl-4-yl]-4-(trifluoro-methyl)-1H-imidazole]	< 1000
CS(=O)(=O)c1cccc(-c2ccc(-c3[nH]c(C(F)(F)F)nc3-c3ccccc3Cl)cc2)c1 [Example 359, 4-(2-chlorophenyl)-5-[3′-(methyl-sulfonyl)biphenyl-4-yl]-2-(trifluoro-methyl)-1H-imidazole]	< 1000
NS(=O)(=O)c1cccc(-c2ccc(-n3cc(C(F)(F)F)nc3-c3ccccc3Cl)cc2)c1 [Example 360, 4′-[2-(2-chlorophenyl)-4-(trifluoro-methyl)-1H-imidazol-1-yl]biphenyl-3-sulfonamide]	< 1000
NS(=O)(=O)c1cccc(-c2ccc(-c3[nH]c(C(F)(F)F)nc3-c3ccccc3Cl)cc2)c1 [Example 361, 4′-[4-(2-chlorophenyl)-2-(trifluoro-methyl)-1H-imidazol-5-yl]biphenyl-3-sulfonamide]	1000 to 10000

Further lines, results first:

IC50 or EC50 (potency, activation or inhibition) [nM]	SMILES
< 1000	NS(=O)(=O)c1cccc(-c2ccc(-c3[nH]c(C(F)(F)F)nc3-c3ccccc3Cl)s2)c1 [Example 362, 3-{5-[4-(2-chlorophenyl)-2-(trifluoro-methyl)-1H-imidazol-5-yl]-2-thienyl}benzenesulfonamide]
1000 to 10000	FC(F)(F)c1cn(-c2ccc(Br)cc2)c(-c2ccccc2C(F)(F)F)n1 [Example 363, 1-(4-bromophenyl)-4-(trifluoromethyl)-2-[2-(trifluoromethyl)phenyl]-1H-imidazole]
< 1000	CS(=O)(=O)c1cccc(-c2ccc(-n3cc(C(F)(F)F)nc3-c3ccccc3C(F)(F)F)cc2)c1 [Example 364, 1-[3′-(methylsulfonyl)biphenyl-4-yl]-4-(trifluoromethyl)-2-[2-(trifluoro-methyl)phenyl]-1H-imidazole]
< 1000	NS(=O)(=O)c1cccc(-c2ccc(-n3cc(C(F)(F)F)nc3-c3ccccc3C(F)(F)F)cc2)c1 [Example 365, 4′-{4-(trifluoromethyl)-2-[2-(trifluoromethyl)phenyl]-1H-imidazol-1-yl}biphenyl-3-sulfonamide]
1000 to 10000	CCOC(=O)c1cn(-c2ccc(Br)cc2)c(-c2ccccc2C(F)(F)F)n1 [Example 366, ethyl 1-(4-bromophenyl)-2-[2-(trifluoromethyl)phenyl]-1H-imidazole-4-carboxylate]
< 1000	CCOC(=O)c1cn(-c2ccc(-c3cccc(S(C)(=O)=O)c3)cc2)c(-c2ccccc2C(F)(F)F)n1 [Example 367]
1000 to 10000	FC(F)(F)c1cn(-c2ccc(Br)cn2)c(-c2ccccc2C(F)(F)F)n1 [Example 368, 5-bromo-2-{4-(trifluoromethyl)-2-[2-(trifluoro-methyl)phenyl]-1H-imidazol-1-yl}pyridine]
< 1000	CS(=O)(=O)c1cccc(-c2ccc(-n3cc(C(F)(F)F)nc3-c3ccccc3C(F)(F)F)nc2)c1 [Example 369, 5-[3-(methylsulfonyl)phenyl]-2-{4-(trifluoromethyl)-2-[2-(trifluoro-methyl)phenyl]-1H-imidazol-1-yl}pyridine]
< 1000	CS(=O)(=O)c1cccc(-c2ccc(-n3cc(C(F)(F)F)nc3-c3ccccc3Cl)nc2)c1 [Example 370, 2-[2-(2-chlorophenyl)-4-(trifluoro-methyl)-1H-imidazol-1-yl]-5-[3-(methylsulfonyl)phenyl]pyridine]
< 1000	CC(C)S(=O)(=O)c1cccc(-c2ccc(-n3cc(C(F)(F)F)nc3-c3ccccc3C(F)(F)F)nc2)c1 [Example 372, 5-{3-[(1-methylethyl)sulfonyl]phenyl}-2-{4-(trifluoromethyl)-2-[2-(trifluoro-methyl)phenyl]-1H-imidazol-1-yl}pyridine]
< 1000	CC(C)S(=O)(=O)c1cccc(-c2ccc(-n3cc(C(F)(F)F)nc3-c3ccccc3C(F)(F)F)cc2)c1 [Example 373, 1-{3′-[(1-methylethyl)sulfonyl]biphenyl-4-yl}-4-(trifluoromethyl)-2-[2-(trifluoromethyl)phenyl]-1H-imidazole]
1000 to 10000	CC(C)(O)c1cn(-c2ccc(Br)cc2)c(-c2ccccc2C(F)(F)F)n1 [Example 374, 2-{1-(4-bromophenyl)-2-[2-(trifluoromethyl)phenyl]-1H-imidazol-4-yl}propan-2-ol]
< 1000	CS(=O)(=O)Nc1cccc(-c2ccc(-n3cc(C(F)(F)F)nc3-c3ccccc3C(F)(F)F)cc2)c1 [Example 375, N-(4′-{4-(trifluoromethyl)-2-[2-(trifluoromethyl)phenyl]-1H-imidazol-1-yl}biphenyl-3-yl)methane-sulfonamide]
< 1000	CCOC(=O)c1cn(-c2ccc(-c3cccc(S(C)(=O)=O)c3)cc2)c(-c2ccccc2)n1 [Example 376, ethyl 1-[3′-(methylsulfonyl)biphenyl-4-yl]-2-phenyl-1H-imidazole-4-carboxylate]
1000 to 10000	CCOC(=O)c1cn(-c2ccc(Br)cc2)c(-c2ccccc2Cl)n1 [Example 377, ethyl 1-(4-bromophenyl)-2-(2-chlorophenyl)-1H-imidazole-4-carboxylate]
1000 to 10000	CC(C)(O)c1cn(-c2ccc(-c3cccc(S(C)(=O)=O)c3)cc2)c(-c2ccccc2)n1 [Example 378, 2-{1-[3′-(methylsulfonyl)biphenyl-4-yl]-2-phenyl-1H-imidazole-4-yl}propan-2-ol]
< 1000	CC(C)(O)c1cn(-c2ccc(-c3cccc(S(C)(=O)=O)c3)cc2)c(-c2ccccc2Cl)n1 [Example 379, 2-{2-(2-chlorophenyl)-1-[3′-(methylsulfonyl)biphenyl-4-yl]-1H-imidazol-4-yl}propan-2-ol]
